Reference: patent US7691601B2, “Medium for detecting and/or identifying of microorganisms” (priority 2003, dated 2010)

Key:
[1] = tested on: free esterases in a stool sample; assay: Coloration at the point of deposit of the stool on Salmonella detection medium (Magenta C8); type: biochemical; parameters: key to Deposit coloration: 0=no coloration; 0.5=trace of coloration; 1=weak coloration; 2=strong coloration; conditions: for Deposit coloration: Table 2
Procedure: (§1) Preparation of the detection medium: A volume of 250 ml of detection medium is prepared from a powdered medium having the following composition:
(§2) Melting is carried out at 100° C., and the medium is autoclaved at 121° C. for 15 minutes. The additives are then added to the medium: Magenta C8 (500 mg/l; B-7102, BIOSYNTH, Staad, Switzerland); X-glucoside (75 mg/l; B-7250, BIOSYNTH, Staad, Switzerland); cefsulodine (10 mg/l; C 4786, Sigma, St Quentin Fallavier, France) and various concentrations of the inhibitor O,O-diethyl p-nitrophenyl phosphate (Paraoxon® ethyl; CAS No. 311-45-5; 36186, Riedel-de Haën, St Quentin Fallavier, France; 0; 1; 5 or 10 mg/l).
(§3) The various detection media thus obtained are then poured into Petri dishes.
(§4) Seeding of Salmonella bacteria: 10 μl of stools are deposited onto a Petri dish, this stool suspension is mixed or not mixed with 10 μl of a suspension of Salmonella (0.5 McF) and isolated as 3 dials on a Petri dish. Various […] and various Salmonella strains originating from the applicant's collection are used according to this protocol. The Petri dishes are incubated at 37° C. for 24 hours. The appearance of a coloration at the point of deposit of the stool (“deposit” column) and at the Salmonella colony (“colony” column) is read according to a semi-quantitative scale: • 0=no coloration • 0.5=trace of coloration • 1=weak coloration • 2=strong coloration The results obtained are given in Table 1.
as §2, with “O,O-dimethyl” for “O,O-diethyl”, “methyl;” for “ethyl;”, “950-35-6;” for “311-45-5; 36186,”, “5, 10, 25” for “0; 1; 5 or 10”
(§5) Seeding of Salmonella bacteria: The Petri dishes are inoculated, incubated and read as in Example 1.
(§6) Preparation of the detection medium: 250 ml of the medium of Example 1, in which the O,O-diethyl p-nitrophenyl phosphate is replaced with various concentrations of O,O-di-(2-chloroethyl)-O-(3-chloro-4-methylcoumarin-7-yl)phosphate (Haloxon®; CAS No. 321-55-1; R276995, Sigma, St Quentin Fallavier, France; 0; 1; 10; 100 or 1000 mg/l), are prepared according to the method of Example 1.
(§7) The various selection media thus obtained are then poured into Petri dishes.

[2] = Colonies column read for stool without added strain, Salmonella detection medium; parameters: key: 0=no coloration; 0.5=trace of coloration; 1=weak coloration; 2=strong coloration; conditions: Table 2, no strain
Procedure: as §1, §2, §3, §4
as §2, with “O,O-dimethyl” for “O,O-diethyl”, “methyl;” for “ethyl;”, “950-35-6;” for “311-45-5; 36186,”, “5, 10, 25” for “0; 1; 5 or 10”
as §5, §6, §7

Salmonella Enteritidis = assay: Coloration of Salmonella Enteritidis colonies on detection medium; type: cell-based; parameters: key: 0=no coloration; 0.5=trace of coloration; 1=weak coloration; 2=strong coloration
Procedure: as §1, §2, §3, §4
as §2, with “O,O-dimethyl” for “O,O-diethyl”, “methyl;” for “ethyl;”, “950-35-6;” for “311-45-5; 36186,”, “5, 10, 25” for “0; 1; 5 or 10”
as §5, §6, §7

free esterases in stools [3] = assay: Coloration at the point of deposit of the stool on Candida detection medium; type: biochemical; parameters: key: 0=no coloration; 0.5=trace of coloration; 1=weak coloration; 2=strong coloration; conditions: Table 4, 25 mg/l
Procedure: as §1
(§8) Melting is carried out at 100° C., and the medium is autoclaved at 121° C. for 15 minutes. The additives are then added to the medium: Magenta C8 (500 mg/l; B-7102, BIOSYNTH, Staad, Switzerland); X-glucoside (75 mg/l; B-7250, BIOSYNTH, Staad, Switzerland); cefsulodine (10 mg/l; C 4786, Sigma, St Quentin Fallavier, France), and also the esterase inhibitor: • ? O,O-diethyl p-nitrophenyl phosphate: 5 mg/l • ? O,O-dimethyl p-nitrophenyl phosphate: 25 mg/l or • ? O,O-di-(2-chloroethyl)-O-(3-chloro-4-methylcoumarin-7-yl)phosphate: 75 mg/l
as §7
(§9) Seeding of yeast of the Candida genus: 10 μl of stools are deposited onto a Petri dish, and this stool suspension is mixed or not mixed with 10 μl of a suspension of Candida and isolated as 3 dials on a Petri dish. Various stools and various strains of Candida genus originating from the applicant's collection are used according to this protocol. The Petri dishes are incubated at 37° C. for 24 hours.
(§10) The appearance of a coloration at the point of deposit of the stool and in the Candida colonies is read according to a semi-quantitative scale: • 0=absence of coloration • 0.5=trace coloration • 1=weak coloration • 2=strong coloration.

free esterases in stools [4] = assay: as above; type: biochemical; conditions: summary in words
Procedure: as §1, §8, §7, §9, §10

Candida albicans = assay: Coloration of Candida albicans colonies on detection medium; type: cell-based; parameters: key: 0=absence of coloration; 0.5=trace coloration; 1=weak coloration; 2=strong coloration; conditions: Table 4, 25 mg/l, stool B
Procedure: as §1, §8, §7, §9, §10

SMILES: COP(=O)(OC)Oc1ccc([N+](=O)[O-])cc1 [O,O-dimethyl p-nitrophenyl phosphate]
- Deposit coloration ([1]; 5 mg/l, stool C, Salmonella Enteritidis): 1
- Deposit coloration ([1]; 5 mg/l, stool C, Salmonella Typhi): 1
- Deposit coloration ([1]; 5 mg/l, stool C, no strain): 1
- Deposit coloration ([1]; 5 mg/l, stool D, Salmonella Enteritidis): 1
- Deposit coloration ([1]; 5 mg/l, stool D, Salmonella Typhi): 1
- Deposit coloration ([1]; 5 mg/l, stool D, no strain): 1
- Deposit coloration ([1]; 10 mg/l, stool C, Salmonella Enteritidis): 0.5
- Deposit coloration ([1]; 10 mg/l, stool C, Salmonella Typhi): 0.5
- Deposit coloration ([1]; 10 mg/l, stool C, no strain): 0.5
- Deposit coloration ([1]; 10 mg/l, stool D, Salmonella Enteritidis): 1
- Deposit coloration ([1]; 10 mg/l, stool D, Salmonella Typhi): 1
- Deposit coloration ([1]; 10 mg/l, stool D, no strain): 1
- Deposit coloration ([1]; 25 mg/l, stool C, Salmonella Enteritidis): 0
- Deposit coloration ([1]; 25 mg/l, stool C, Salmonella Typhi): 0
- Deposit coloration ([1]; 25 mg/l, stool C, no strain): 0
- Deposit coloration ([1]; 25 mg/l, stool D, Salmonella Enteritidis): 0
- Deposit coloration ([1]; 25 mg/l, stool D, Salmonella Typhi): 0
- Deposit coloration ([1]; 25 mg/l, stool D, no strain): 0
- Aspecific enzymatic reactions due to the presence of free enzymes ([1]; stools, Salmonella detection medium, summary in words): greatly inhibited
- Colonies coloration ([2]; 5 mg/l, stool C): 0
- Colonies coloration ([2]; 5 mg/l, stool D): 0
- Colonies coloration ([2]; 10 mg/l, stool C): 0
- Colonies coloration ([2]; 10 mg/l, stool D): 0
- Colonies coloration ([2]; 25 mg/l, stool C): 0
- Colonies coloration ([2]; 25 mg/l, stool D): 0
- Colonies coloration (Salmonella Enteritidis; Table 2, 5 mg/l, stool C): 2
- Colonies coloration (Salmonella Enteritidis; Table 2, 5 mg/l, stool D): 2
- Colonies coloration (Salmonella Enteritidis; Table 2, 10 mg/l, stool C): 2
- Colonies coloration (Salmonella Enteritidis; Table 2, 10 mg/l, stool D): 2
- Colonies coloration (Salmonella Enteritidis; Table 2, 25 mg/l, stool C): 2
- Colonies coloration (Salmonella Enteritidis; Table 2, 25 mg/l, stool D): 2
- Deposit coloration (free esterases in stools [3]; stool A, Candida albicans): 1
- Deposit coloration (free esterases in stools [3]; stool A, Candida dubliniensis): 1
- Deposit coloration (free esterases in stools [3]; stool A, Candida krusei): 1
- Deposit coloration (free esterases in stools [3]; stool B, Candida albicans): 1
- Deposit coloration (free esterases in stools [3]; stool B, Candida dubliniensis): 1
- Deposit coloration (free esterases in stools [3]; stool B, Candida krusei): 1
- Aspecific enzymatic reactions due to the presence of free enzymes (free esterases in stools [4]): greatly inhibited
- Colonies coloration (Candida albicans): 0.5
